We go through two compounds from patent publication US20180133211A1, “METHODS AND MATERIALS FOR PROMOTING BONE FORMATION” (Mayo Foundation for Medical Education and Research, priority 2015, published 2018).

Assay [1] has as its system mouse calvarial explants. Briefly: RT-qPCR mRNA expression in calvarial explants. Type of assay: cell-based. The conditions noted are these: calvarial explants from neo-natal and adult mice, 3 μM, 12 days ex vivo. The protocol:
Calvariae from 2 to 3-day-old and from 7-week old C57BL/6 mice were dissected aseptically. The calvarial bone explants were cultured in 48-well plates in α-MEM (Biochrom) containing 10% FCS (Biochrom), 50 μg/mL ascorbic acid (Sigma-Aldrich), 5 mM β-glycerophosphate (Sigma-Aldrich), and 10 μg/mL gentamicin (Sigma-Aldrich). The day after dissection, medium was changed, and a part of the explants was treated with 3 μM L- or DL-SFN for 12 days. Thereafter, one part of the calvariae were fixed for 1 hour in 4% para-formaldehyde (PFA), and mineralization was measured by Alizarin Red S stain (Sigma-Aldrich). For this purpose, Alizarin Red S dye was extracted using 10% cetylpyridinium chloride (CPC) in 10 mM sodiumphosphate (pH=7.0) for 45 minutes at room temperature. Alizarin Red S absorbance was measured at 562 nm in a multi-plate reader (Tecan, Maennedorf, Switzerland) and normalized to total protein amount measured by bicinchoninic acid assay (Thermo Fisher Scientific, Waltham, Mass., USA). […]
Total RNA was extracted using the SV Total RNA Isolation kit (Promega) following the supplier's instructions. cDNA was synthesized from about 0.5 μg RNA using the First Strand cDNA Synthesis kit (Roche) as described by the supplier. […] All RT-qPCR assays were performed in triplicate, and expression was evaluated using the comparative quantification method (Pfaffl, Nucleic Acids Res., 29:e45 (2001)).

The subject of assay [2] is female C57BL/6 mice. Briefly: Bone histomorphometry of distal femur after 5 weeks of GSK126. Type of assay: in vivo, mouse. The conditions noted are these: for N.Ob/B.pm / N.Ob/T.Ar / N.Oc/B.Pm / N.Oc/T.Ar / Ob.S/BS / Oc.S/BS: mean. The protocol: Female C57BL/6 mice (Harlan Laboratories) were maintained on a 12-hour light/12-hour dark cycle and were permitted ad libitum access to food and water. For efficacy studies, 6-week old mice received daily intraperitoneal (IP) injections of GSK126 at 15 mg/kg, 50 mg/kg, or vehicle (DMSO) in 20% Captisol adjusted to pH 4-4.5 with IN acetic acid (McCabe et al., Nature, 492:108-112 (2012)) for 5 weeks.
The dosage, delivery schedule, and administration route were similar to those described elsewhere (McCabe et al., Nature, 492:108-112 (2012)). Animals were weighed daily. To label mineralizing bone surfaces, mice received subcutaneous injections of calcein (10 mg/kg) 5 days and 24 hours before euthanasia.
The right distal femur was processed for static and dynamic histomorphometry as described elsewhere (McGee-Lawrence et al., Bone, 48:1117-1126 (2011)). Thin (5 μm) sections were stained with Von Kossa/McNeal's tetrachrome to highlight osteoblast surfaces and Goldner's trichrome to examine mineralizing surface and bone surfaces. Osteoclasts were detected using TRAP staining. Unstained sections were used for assessment of dynamic histomorphometry and bone area. Slides were digitized under 40× magnification using Mikroscan D2 digital whole slide scanner and Q-Skan software (Mikroscan Technologies). Beginning 450 μm proximal to the growth plate, mineralizing surface (MS/BS, %/day), mineral apposition rate (MAR, μm/day), bone formation rate (BFR/BV, %/day), osteoblast surface/bone surface (Ob.S/BS, %), osteoblast number/bone perimeter (N.Ob/B.Pm, #/mm), osteoclast surface/bone surface (Oc.S/BS, %), and osteoclast number/bone perimeter (N.Oc/B.Pm, #/mm) were quantified using Image J software as described elsewhere (Schneider et al., Nat. Methods, 9:671-675 (2012) and Egan et al., Histopathology, 61:1168-1173 (2012)).

In assay [3] the test system is H3K27me3 marks in MC3T3 cells. The assay can be described thus: H3K27me3 ChIPSeq in MC3T3 cells. Type of assay: cell-based, mouse. The conditions noted are these: MC3T3, 5 μM GSK126, 24 hours. The protocol: MC3T3 (10,000 cells/cm^2) were plated in 10 cm plates in maintenance medium. Two days later, 5 μM GSK126 or vehicle were added to the cells in osteogenic medium. Twenty four hours later, cells were harvested by trypsin, and a chromatin immunoprecipitation assay (ChIP) was performed as described elsewhere (Dudakovic et al., J. Biol. Chem., 288:28783-28791 (2013)) using H3K27Me3 (17-622, Lot 2213948, Millipore) and IgG (PP64B, Lot 2056666A, Millipore) antibodies.
Sequencing libraries were prepared and massively parallel high throughput sequencing was performed on Illumina HiSeq2000 system. The alignment, quality assessment, peak calling, and visualization were performed with the HiChIP analysis pipeline (Yan et al., BMC Bioinformatics, 15:280 (2014)). Briefly, the 50 base-pair reads were aligned to the mm10 reference genome using Burrows-Wheeler Aligner. Duplicates were marked with Picard (http://broadinstitute.github.io/picard), and read-pairs without a unique alignment were filtered out using SAMTools (Li et al., Bioinformatics, 25:2078-2079 (2009)). Duplicates were filtered out using a custom script, and pairs with one or both ends mapped uniquely were retained. Enriched regions were identified using SICER (Zang et al., Bioinformatics, 25:1952-1958 (2009)).

The mark [4] stands for this setting: distal femoral metaphysis, 15 mg/kg.
[5] abbreviates: distal femoral metaphysis, 50 mg/kg.

For the compound `C[S+]([O-])CCCCN=C=S` (racemic) [DL-SFN], the Tnfsf11 expression result in assay [1] is given as “decreased”.
Consider `CC[C@H](C)n1cc(C)c2c(C(=O)NCc3c(C)cc(C)[nH]c3=O)cc(-c3ccc(N4CCNCC4)nc3)cc21` [GSK126, N-[(1,2-dihydro-4,6-dimethyl-2-oxo-3-pyridinyl)methyl]-3-methyl-1-[(1S)-1-methylpropyl]-6-[6-(1-piperazinyl)-3-pyridinyl]-1H-indole-4-carboxamide], for which, in assay [2] (setting [4]), the N.Ob/B.pm is listed as 0.028 #/mm, the N.Ob/T.Ar worked out at 0.109, the N.Oc/B.Pm is recorded as 0.015 #/mm and the N.Oc/T.Ar was 0.042. Further, the Ob.S/BS in assay [2] (setting [4]) was 0.354%. Further, in assay [2] (setting [5]), the N.Ob/B.pm is 0.040 #/mm, the N.Ob/T.Ar is 0.081, the N.Oc/B.Pm is 0.018 #/mm and the N.Oc/T.Ar worked out at 0.050. In addition, in assay [2] (setting [5]), the Ob.S/BS is 0.551%. Further, the “interlabel thickness (Ir.L.Th), mineral apposition rate (MAR) and bone formation rate (BFR)” value in assay [2] (dynamic histomorphometry, GSK126 50 mg/kg vs vehicle) is listed as “enhanced”. The Oc.S/BS in assay [2] (static histomorphometry, distal femoral metaphysis, 15 mg/kg) was found to be 0.314%. For the same compound, the Oc.S/BS in assay [2] (static histomorphometry, distal femoral metaphysis, 50 mg/kg) is given as 0.240%. Besides, in assay [2] (static histomorphometry, distal femoral metaphysis, in words (FIG. 19C)), the “osteoblast surface area per bone surface area (Ob.S/BS)” value is given as “increase”. Moreover, the “number of osteoblasts per bone perimeter (N. Ob./B.Pm)” value in assay [2] (static histomorphometry, distal femoral metaphysis, in words (FIG. 19D)) is on record as “increase”. Further, the “deposition of H3K27me3 marks near transcriptional start sites (TSSs) across the genome” value in assay [3] was “decreased”.
